Reference: article PMC10294390 (BMC Complementary Medicine and Therapies, 2023)

What was measured:
[1] = system: CRL1554 normal human fibroblast cells; assay: MTT assay, cytotoxicity of PPCs on normal fibroblasts; settings: PPCs 20-160 µM, 72 h
Method: The cytotoxicity of a panel of 14 PPCs (Kmf, Cur, Que, Rsv, HHG, Hsp, BetA, IC3, Cmr, Sul, Irt, Lyc, Sil, and Snn) on CRL1554 normal human fibroblast cells was determined using the MTT assay [16]. CRL1554 cells were seeded (27 × 10^3 cells/well) into 96-well flat-bottomed plates and incubated at 37 °C for 18 h. Subsequently, the medium was removed, and the cells were washed with Hanks balanced salt solution (HBSS; 100 µl/well), and treated with various concentrations of PPCs (20, 40, 60, 80, 100, 120, 140 and 160 µM) for 72 h. The cells were then washed twice with HBSS, and 100 μl medium with 20 µl (5 mg/ml) MTT solution in PBS was added to each well and incubated at 37 °C for 4 h. The supernatants were aspirated, and 200 μL of dimethyl sulfoxide (DMSO) was added to dissolve the formazan crystals. Finally, the absorbance was measured using a multiwell spectrophotometer at two wavelengths (λ, 492 and 570 nm).

DLD-1 colon tumor model = system: DLD-1 colon tumor model; parameters: method as in PMID 14692718; settings: cited from earlier work
[2] = system: SW837 human rectum cancer cell line; assay: MTT assay, single and schedule-dependent combined treatment; assay type: cell-based; settings: PPC alone, MTT, Fig. 1C; for cytotoxicity mean: SW837; for IC50: Homo sapiens, SW837, SW837, read-out: IC50
Method: (§1) The plates were washed, and PPCs [Cur, Kmf, or Que (60 or 120 µM), or Rsv (40 or 80 µM)] were added, followed by incubation at 37 °C for 48 h. For inverted sequential treatment, PPC [Cur, Kmf, or Que (60 or 120 µM), or Rsv (40 or 80 µM)] was added and incubated at 37 °C for 24 h. […] Cell growth was monitored as previously described.

[3] = system: SW1116 human colon cancer cell line; assay: as above; assay type: cell-based; settings: Homo sapiens, SW 1116, PPC alone, MTT, Fig. 1B
Method: as §1

SW1116 cells [4] = assay: Annexin V-FITC/PI double staining, flow cytometry; assay type: cell-based, human; settings: SW1116, 72 h
Method: (§2) The levels of cell surface phosphatidylserine were determined to monitor the type of cell death and the kinetics of apoptosis. The CRC cell lines SW1116 and SW837 were seeded (2.5 × 10^5 cells/well) into 24-well plates and incubated in a non-CO2 incubator at 37 °C for 18 h. […] The cells were subsequently washed twice with HBSS and harvested using trypsin. Finally, the cells were double-stained using the Annexin V-FITC-Flous staining kit, according to the manufacturer’s instructions (Roche Diagnostic GmbH). Annexin V-Flous labelling solution containing Annexin V-FITC and PI (100 µl) was added to both the treated and control cell groups and incubated at 15–20 °C for 15 min. The cells (1 × 10^6 cells/ml) were then resuspended in binding buffer, and fluorescence was monitored using flow cytometry (FC500; Beckman Coulter, Inc.).

SW1116 cells [5] = assay: DNA fragmentation assay; assay type: cell-based, human; settings: Sora 5 µM, PPC 200 and 400 µM, simultaneous combinations, 72 h, Fig. 8A, C
Method: (§3) Induction of apoptosis was monitored using a DNA fragmentation assay following the manufacturer’s instructions (Apoptotic DNA Ladder Detection kit; Abcam). […] Cells were subsequently incubated at 37 °C for 72 h. The cells were then trypsinized, harvested, washed, pelleted, and lysed using Tris–EDTA (TE) lysis buffer (35 µl). Enzyme A solution (RNase; 5 µl) was added, followed by incubation at 37 °C for 10 min. Enzyme B solution (proteinase; 5 µl) was then added, followed by incubation at 50 °C for 30 min. Ammonium acetate solution (5 µl) and isopropanol (50 µl) were added to each sample and incubated at -20 °C for 10 min. Finally, the DNA was pelleted, washed with 0.5 ml 70% methanol, and dissolved in 30 µl DNA suspension buffer. The extracted DNA samples were loaded onto a 1.2% agarose gel, along with a loading marker (1 kb DNA ladder), and subjected to electrophoresis, using a running buffer containing 1.35 µg/ml ethidium bromide at 5 V/cm for 1 h. Ethidium bromide-stained DNA bands were visualized using transillumination with UV light.

SW1116 cells [6] = assay: Cell cycle analysis by flow cytometry (PI); assay type: cell-based, human; settings: 72 h
Method: (§4) The cells were subsequently processed using a DNA-prep kit and DNA-Prep EPICS workstation. The cells were treated with a non-ionic detergent to permeabilize the cell membrane, followed by propidium iodide (PI) and RNase, and incubated at 15–20 °C for 15 min. The cells were resuspended in binding buffer at a concentration of 3–10 × 10^6 cells/ml for optimal staining. Fluorescence was measured using a flow cytometer (Beckman Coulter, Inc.), and the percentage of cells in the different phases of the cell cycle was calculated using the Phoenix statistical software package, Advanced DNA cell cycle software (Phoenix Flow System).

SW1116 and SW837 cells = assay: Mitochondrial membrane potential (MMP) analysis, MitoNIR dye, flow cytometry; assay type: cell-based, human; settings: Cur 400 µM alone; 72 h; cell line not stated
Method: The inner mitochondrial membrane is rich in negatively charged glycoproteins and is therefore negatively charged. The accumulation of high concentrations of protons outside of the inner membrane establishes the transmembrane potential. The MMP was monitored using the NIR Mitochondrial Membrane Potential Assay kit (Abcam) according to the manufacturer’s protocol. Briefly, cells (2.5 × 10^5 cells/well) were seeded into 24-well plates and incubated in a non-CO2 incubator at 37 °C for 18 h. […] MitoNIR Dye (200X; 5 µl/ml) was added to each sample, followed by incubation at 37 °C for 15–30 min. The cells were subsequently pelleted and resuspended in 1 ml assay buffer. Flow cytometry, in the FL4 channel (λExcitation/λEmission, 635/660 nm), was used to monitor the fluorescence intensity.

SW837 cells [7] = assay: Annexin V-FITC/PI double staining, flow cytometry; assay type: cell-based, human; settings: SW837, 72 h
Method: as §2

SW837 cells [8] = assay: DNA fragmentation assay; assay type: cell-based, human; settings: Sora 5 µM, PPC 200 and 400 µM, sequential combinations, 72 h, Fig. 8B, D
Method: as §3

SW837 cells [9] = assay: Cell cycle analysis by flow cytometry (PI); assay type: cell-based, human; settings: 72 h
Method: as §4

OCc1c[nH]c2ccccc12 [I3C, indol-3-carbinol]
cytotoxicity [1]: 0.2–9.2%

COC(=O)C[C@](O)(CCCC(C)(C)O)C(=O)O[C@@H]1C(OC)=C[C@]23CCCN2CCc2cc4c(cc2[C@H]13)OCO4 [HHG, homoharringtonine]
cytotoxicity [1]: 99–100%

O=c1ccc2ccccc2o1 [Cmr, coumarin]
cytotoxicity [1]: 7.4–11.34%

CCc1c2c(nc3ccc(OC(=O)N4CCC(N5CCCCC5)CC4)cc13)-c1cc3c(c(=O)n1C2)COC(=O)[C@]3(O)CC [Irt, irinotecan]
delay of tumor cell growth (DLD-1 colon tumor model): 71% | cytotoxicity [1]: 44.9–81.9%

O=c1c(O)c(-c2ccc(O)c(O)c2)oc2cc(O)cc(O)c12 [Que, quercetin]
cytotoxicity mean [2]: 19 ± 3% | IC50 [3]: 160 µM | B1, percentage of necrotic cells (SW1116 cells [4]; PPC 200 µM alone): 4.5% | B2, percentage of late apoptotic cells (SW1116 cells [4]; PPC 200 µM alone): 24.5% | B4, percentage of early apoptotic cells (SW1116 cells [4]; PPC 200 µM alone): 4.2% | B1, percentage of necrotic cells (SW1116 cells [4]; PPC 400 µM alone): 31.1% | B2, percentage of late apoptotic cells (SW1116 cells [4]; PPC 400 µM alone): 34.1% | B4, percentage of early apoptotic cells (SW1116 cells [4]; PPC 400 µM alone): 0.8% | cytotoxicity [1]: 0.0–16.2% | cytotoxicity ([1]; listed as quercetin): ≤ 20% | induction of apoptosis as indicated by DNA fragmentation (SW1116 cells [5]): marked induction of apoptosis | %G0/G1 (cells in G0/G1 phase) (SW1116 cells [6]; PPC 200 µM alone): 39.6% | %G2/M (cells in G2/M phase) (SW1116 cells [6]; PPC 200 µM alone): 15.0% | %S (cells in S phase) (SW1116 cells [6]; PPC 200 µM alone): 45.0% | %G0/G1 (cells in G0/G1 phase) (SW1116 cells [6]; PPC 400 µM alone): 38.5% | %G2/M (cells in G2/M phase) (SW1116 cells [6]; PPC 400 µM alone): 14.1% | %S (cells in S phase) (SW1116 cells [6]; PPC 400 µM alone): 47.2% | %SubG1 (cells in sub G1) (SW1116 cells [6]; PPC 400 µM alone): 8.4%

COc1cc(/C=C/C(=O)CC(=O)/C=C/c2ccc(O)c(OC)c2)ccc1O [Cur, curcumin]
IC50 [2]: 150 µM | IC50 [3]: 60 µM | change in MMP (shift of MitoNIR red fluorescence) (SW1116 and SW837 cells): no change in MMP | B1, percentage of necrotic cells (SW1116 cells [4]; PPC 200 µM alone): 5.9% | B2, percentage of late apoptotic cells (SW1116 cells [4]; PPC 200 µM alone): 11.5% | B4, percentage of early apoptotic cells (SW1116 cells [4]; PPC 200 µM alone): 4.6% | B1, percentage of necrotic cells (SW1116 cells [4]; PPC 400 µM alone): 18.2% | B2, percentage of late apoptotic cells (SW1116 cells [4]; PPC 400 µM alone): 35.2% | B4, percentage of early apoptotic cells (SW1116 cells [4]; PPC 400 µM alone): 3.8% | B1, percentage of necrotic cells (SW837 cells [7]; PPC 200 µM alone): 60.9% | B2, percentage of late apoptotic cells (SW837 cells [7]; PPC 200 µM alone): 26.6% | B4, percentage of early apoptotic cells (SW837 cells [7]; PPC 200 µM alone): 0.3% | B1, percentage of necrotic cells (SW837 cells [7]; PPC 400 µM alone): 67.9% | B2, percentage of late apoptotic cells (SW837 cells [7]; PPC 400 µM alone): 32.3% | B4, percentage of early apoptotic cells (SW837 cells [7]; PPC 400 µM alone): 0.0% | cytotoxicity [1]: 0.0% | cytotoxicity ([1]; listed as curcumin): ≤ 20% | induction of apoptosis as indicated by DNA fragmentation (SW1116 cells [5]): marked induction of apoptosis | DNA fragmentation (SW837 cells [8]): increased levels of DNA fragmentation | %G0/G1 (cells in G0/G1 phase) (SW1116 cells [6]; PPC 200 µM alone): 49.1% | %G2/M (cells in G2/M phase) (SW1116 cells [6]; PPC 200 µM alone): 13.6% | %S (cells in S phase) (SW1116 cells [6]; PPC 200 µM alone): 37.1% | %G0/G1 (cells in G0/G1 phase) (SW1116 cells [6]; PPC 400 µM alone): 28.5% | %G2/M (cells in G2/M phase) (SW1116 cells [6]; PPC 400 µM alone): 11.3% | %S (cells in S phase) (SW1116 cells [6]; PPC 400 µM alone): 60% | %SubG1 (cells in sub G1) (SW1116 cells [6]; PPC 400 µM alone): 12% | %G0/G1 (cells in G0/G1 phase) (SW837 cells [9]; PPC 200 µM alone): 49.1% | %G2/M (cells in G2/M phase) (SW837 cells [9]; PPC 200 µM alone): 6.2% | %S (cells in S phase) (SW837 cells [9]; PPC 200 µM alone): 44.6% | %SubG1 (cells in sub G1) (SW837 cells [9]; PPC 200 µM alone): 14.7% | %G0/G1 (cells in G0/G1 phase) (SW837 cells [9]; PPC 400 µM alone): 58.1% | %G2/M (cells in G2/M phase) (SW837 cells [9]; PPC 400 µM alone): 2.4% | %S (cells in S phase) (SW837 cells [9]; PPC 400 µM alone): 39.4% | %SubG1 (cells in sub G1) (SW837 cells [9]; PPC 400 µM alone): 2.9%

O=c1c(O)c(-c2ccc(O)cc2)oc2cc(O)cc(O)c12 [Kmf, kaempferol]
cytotoxicity mean [2]: 21 ± 3.5% | IC50 [3]: 100 µM | B1, percentage of necrotic cells (SW837 cells [7]; PPC 200 µM alone): 4.9% | B2, percentage of late apoptotic cells (SW837 cells [7]; PPC 200 µM alone): 20.5% | B4, percentage of early apoptotic cells (SW837 cells [7]; PPC 200 µM alone): 2.5% | B1, percentage of necrotic cells (SW837 cells [7]; PPC 400 µM alone): 36.8% | B2, percentage of late apoptotic cells (SW837 cells [7]; PPC 400 µM alone): 44.4% | B4, percentage of early apoptotic cells (SW837 cells [7]; PPC 400 µM alone): 2.8% | cytotoxicity [1]: 0.0–1.1% | cytotoxicity ([1]; listed as kaempferol): ≤ 20% | DNA fragmentation (SW837 cells [8]): increased levels of DNA fragmentation | %G0/G1 (cells in G0/G1 phase) (SW837 cells [9]; PPC 200 µM alone): 60.4% | %G2/M (cells in G2/M phase) (SW837 cells [9]; PPC 200 µM alone): 5.9% | %S (cells in S phase) (SW837 cells [9]; PPC 200 µM alone): 33.6% | %SubG1 (cells in sub G1) (SW837 cells [9]; PPC 200 µM alone): 1.3% | %G0/G1 (cells in G0/G1 phase) (SW837 cells [9]; PPC 400 µM alone): 59.9% | %G2/M (cells in G2/M phase) (SW837 cells [9]; PPC 400 µM alone): 6.3% | %S (cells in S phase) (SW837 cells [9]; PPC 400 µM alone): 33.6% | %SubG1 (cells in sub G1) (SW837 cells [9]; PPC 400 µM alone): 2.7%

COc1cc(C2Oc3cc([C@H]4Oc5cc(O)cc(O)c5C(=O)[C@@H]4O)ccc3OC2CO)ccc1O (stereo partly shown) [Sin, silibinin]
cytotoxicity [1]: 0.0–5.54%

Oc1ccc(/C=C/c2cc(O)cc(O)c2)cc1 [Rsv, resveratrol]
IC50 [2]: 140 µM | IC50 [3]: 70 µM | cytotoxicity [1]: 0.0–3.3% | cytotoxicity ([1]; listed as resveratrol): ≤ 20%

CC1=C(CC(=O)O)c2cc(F)ccc2/C1=C\c1ccc([S+](C)[O-])cc1 (stereo not shown) [Sul, sulanidac]
cytotoxicity [1]: 38.94–98%

C=C(C)[C@@H]1CC[C@]2(C(=O)O)CC[C@]3(C)[C@H](CC[C@@H]4[C@@]5(C)CC[C@H](O)C(C)(C)[C@@H]5CC[C@]43C)[C@@H]12 [BetA, betulinic acid]
cytotoxicity [1]: 69–97.5%

CC(C)=CCC/C(C)=C/C=C/C(C)=C/C=C/C(C)=C/C=C/C=C(C)/C=C/C=C(C)/C=C/C=C(\C)CCC=C(C)C [Lyp, lycopene]
cytotoxicity [1]: 39.7–66.6%

COc1ccc([C@@H]2CC(=O)c3c(O)cc(O)cc3O2)cc1O [Hsp, hesperetin]
cytotoxicity [1]: 0.0–4.4%
